Measurements taken from patent US9422324B2, “6-substituted demethyl-estradiol derivatives as selective ER-β agonists” (priority 2010, dated 2016).

Assays:
TREK2 = experiment: Expression profiling (Agilent microarray), TREK2 gene transcription in tumor cell lines; format: cell-based, human; settings: 24 hours
Experimental: (§1) The study includes three human tumor cell lines: A549, Panc-1, and SK-OV-3. The lines are each grown in two flasks cultured to roughly 40% confluence. One of the flasks is treated by addition of drug to the culture media at a various concentrations. The other, mock treated, flask is treated only with the vehicle used to solubilize and deliver the drug. RNA extracted from the pairs of treated and untreated samples is subjected to microarray analysis on Agilent Whole Human Genome Microarrays (G4112F). Each analysis reports the difference in abundance of messenger RNAs for each of the 41,000 specific mRNA detectors on the array. This direct comparison of the treated versus untreated samples for each cell line provides extremely sensitive detection of changes in mRNA abundance resulting from the drug treatment. As each cell line comparison is self-normalized, the results can be compared across the samples with high confidence.
(§2) Three human tumor cell lines, A549, Panc-1, and SK-OV-3, are each grown in two flasks cultured to roughly 40% confluence. One of the flasks is treated by addition of compound 1 to the culture media at concentrations according to Table 1 above. The other, mock treated, flask is treated only with the vehicle used to solubilize and deliver the drug. All flasks are cultured for a further 24 hours, and then the cells are scraped free and washed in ice-cold PBS, then collected by centrifugation. The harvested cells are immediately frozen, and stored at −80° C. or colder. It is visually noticeable that the treated cells yielded less mass than the untreated cells.
(§3) Total RNA is prepared from the frozen tissue samples using Trizol-based cell lysis followed by 65° C. hot phenol extraction and RNeasy chromatography purification. The purified RNA samples are analyzed spectrophotometrically. The concentration of RNA is determined by measuring the absorbance at 260 nm (A260). Given an absorbance of 1 unit at 260 nm corresponds to […].
(§4) All RNAs are labeled using 1 microgram of RNA as input to an Agilent Low Input Labeling reaction.
(§5) Test RNA is labeled with Cy5 (650 nm emitter) and reference RNA is labeled with Cy3 (550 nm emitter) nucleotides. Labeling, hybridizations and subsequent washings are carried out on Agilent H1Av2 human expression chips. The resulting hybridized chips are scanned on an Agilent microarray scanner, and intensity information for each detector spot is extracted from the scanned image using Agilent feature extraction software. The set of data images and extracted measurements from each image are supplied.
(§6) The data reported are the red (treated) and green (untreated) background-subtracted signals. This is the least modified form of the data. A background “surface” is estimated across the slide, based on numerous probes that are not complementary to human DNA. These serve as estimators of both non-specific binding of labeled cRNA to array surfaces and non-specific binding of labeled cRNA to the immobilized DNA oligomers. Using this information, local noise around each probe is estimated and this is subtracted from the signal found at the area of oligonucleotide deposition for each particular probe feature on the array (gBGSubSignal, rBGSubSignal). The ratio of signal from the RNA of the treated cell and the RNA of the untreated cell is reported both as a direct ratio and as the log2 ratio (Ratio, Log2Ratio).
(§7) After the ratios have been calculated for the normalized data, the various control and duplicate samples are analyzed to build a model of how reproducible the results are, and how this reproducibility is varies depending on signal strength and noise. With these parameters, an estimate of the likelihood that each ratio could have arisen if the red and green intensities are randomly drawn from a single process that produced the same distribution of intensities is produced. […]

TREK1 = experiment: Expression profiling (Agilent microarray), TREK1 gene transcription in tumor cell lines; format: cell-based, human; settings: 24 hours
Experimental: as §1, §2, §3, §4, §5, §6, §7

ERβ = ERβ (Homo sapiens (Human), UniProt Q92731); experiment: Luciferase reporter assay in MDA-MB-231 cells transfected with ERα or ERβ; format: cell-based; settings: MDA-MB-231, 24 hours; relative to B and I; from FIGS. 2 and 3 and Table 1
Chain of ERβ (Q92731 whole entry, species assumed): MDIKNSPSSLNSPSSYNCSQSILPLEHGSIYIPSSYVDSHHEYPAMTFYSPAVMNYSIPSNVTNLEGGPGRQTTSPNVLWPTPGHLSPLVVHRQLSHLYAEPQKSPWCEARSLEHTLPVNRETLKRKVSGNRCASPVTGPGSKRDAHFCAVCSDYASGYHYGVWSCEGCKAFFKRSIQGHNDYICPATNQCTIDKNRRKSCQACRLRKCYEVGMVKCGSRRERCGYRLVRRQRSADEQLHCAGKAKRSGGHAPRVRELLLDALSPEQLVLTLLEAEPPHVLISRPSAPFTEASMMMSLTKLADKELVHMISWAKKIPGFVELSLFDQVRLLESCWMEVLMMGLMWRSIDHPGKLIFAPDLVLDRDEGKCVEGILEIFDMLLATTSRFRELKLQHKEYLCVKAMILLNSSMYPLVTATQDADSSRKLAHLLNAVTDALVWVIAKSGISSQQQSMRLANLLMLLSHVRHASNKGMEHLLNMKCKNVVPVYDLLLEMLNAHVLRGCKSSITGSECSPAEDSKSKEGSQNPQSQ
Experimental: Response of I and B on ERα and ERβ is measured by a luciferase assay. MDA-MB-231 cells are transiently transfected with expression vectors encoding either ERα or ERβ and co-transfected with a luciferase reporter construct. Cells are treated for 24 hours at […] with increasing amounts of test article.

COC[C@@H]1C[C@@H]2[C@H](CCC3[C@H]2CC[C@@H]3O)c2ccc(O)cc21 (stereo partly drawn) [compound 1, (6R,8S,9S,14S,17S)-6-(methoxymethyl)-7,8,9,11,12,13,14,15,16,17-decahydro-6H-cyclopenta[a]phenanthrene-3,17-diol]
TREK2 Log 2 ratio treated/untreated (TREK2; A549, 50 μM): 5.37/ | TREK2 Log 2 ratio treated/untreated (TREK2; A549, 20 μm): 3.79/ | TREK2 Log 2 ratio treated/untreated (TREK2; A549, 100 μm): 3.00/ | TREK2 Log 2 ratio treated/untreated (TREK2; PANC1, 50 μM): 4.20/ | TREK2 Log 2 ratio treated/untreated (TREK2; PANC1, 20 μm): 4.15/ | TREK2 Log 2 ratio treated/untreated (TREK2; PANC1, 100 μm): 3.91/ | TREK2 Log 2 ratio treated/untreated (TREK2; SKOV-3, 50 μM): 5.56/ | TREK2 Log 2 ratio treated/untreated (TREK2; SKOV-3, 20 μm): 4.12/ | TREK2 Log 2 ratio treated/untreated (TREK2; SKOV-3, 100 μm): 4.07/ | TREK1 Log 2 ratio treated/untreated (TREK1; A549, 50 μM): 4.07/ | TREK1 Log 2 ratio treated/untreated (TREK1; A549, 100 μm): 3.53/ | TREK1 Log 2 ratio treated/untreated (TREK1; PANC1, 50 μM): 2.05/ | TREK1 Log 2 ratio treated/untreated (TREK1; PANC1, 20 μm): 4.78/ | TREK1 Log 2 ratio treated/untreated (TREK1; PANC1, 100 μm): 3.51/ | TREK1 Log 2 ratio treated/untreated (TREK1; SKOV-3, 50 μM): 2.80/ | TREK1 Log 2 ratio treated/untreated (TREK1; SKOV-3, 20 μm): 1.96/ | TREK1 Log 2 ratio treated/untreated (TREK1; SKOV-3, 100 μm): 1.97/ | ER subtype functional profile (% of E2 activity on ERα and ERβ) (ERβ): ERβ specific agonist
